From ChEMBL document CHEMBL1158665, “Antipoliovirus structure-activity relationships of some aporphine alkaloids” (J Nat Prod, 1998)
Counter-ions that a name gives are not always drawn.

Columns and labels:
Poliovirus 2 [1] = assay: Antiviral activity against Poliovirus 2 Sabin 2 infected in african green monkey Vero cells at 0.001 multiplicity of infection assessed as inhibition of virus-induced cytopathogenicity; type: functional; conditions: Enterovirus C, Sabin 2, Vero; read-out: ED50 (the source's name)
Poliovirus 2 [2] = assay: Antiviral activity against Poliovirus 2 Sabin 2 in african green monkey Vero cells assessed as log reduction in virus titers after at 0.01 multiple round of replication at their respective maximum tolerated concentration after 32 hrs; type: functional
Poliovirus 2 [3] = assay: Antiviral activity against Poliovirus 2 Sabin 2 in african green monkey Vero cells assessed as log reduction in virus titers after at 0.001 multiple round of replication at their respective half the maximum tolerated concentration after 32 hrs; type: functional
Poliovirus 2 [4] = assay: Antiviral activity against Poliovirus 2 Sabin 2 in african green monkey Vero cells assessed as log reduction in virus titers after at 0.1 multiple round of replication at their respective half of maximum tolerated concentration after 32 hrs; type: functional
Poliovirus 2 [5] = assay: Antiviral activity against Poliovirus 2 Sabin 2 in african green monkey Vero cells assessed as log reduction in virus titers after at 0.001 multiple round of replication at their respective maximum tolerated concentration after 32 hrs; type: functional
[6] = Cytotoxicity against african green monkey Vero cells assessed as drug concentration at which no cellular alteration was microscopically detected; type: cell-based; conditions: chlorocebus sabaeus, read-out: MTC
Poliovirus 2 [7] = assay: Antiviral activity against Poliovirus 2 Sabin 2 in african green monkey Vero cells assessed as log reduction in virus titers after at 0.1 multiple round of replication at their respective maximum tolerated concentration after 32 hrs; type: functional
Poliovirus 2 [8] = assay: Antiviral activity against Poliovirus 2 Sabin 2 in african green monkey Vero cells assessed as log reduction in virus titers after at 0.01 multiple round of replication at their respective half the maximum tolerated concentration after 32 hrs; type: functional
[9] = Cytotoxicity against african green monkey Vero cells; type: cell-based; conditions: chlorocebus sabaeus
[10] = Selectivity index, ratio of CC50 for african green monkey Vero cells to ED50 for Poliovirus 2 Sabin 2; type: toxicity, cell-based

COc1cc2c(cc1OC)-c1c(OC)c(OC)cc3c1[C@H](C2)N(C(C)=O)CC3
EC50 (Poliovirus 2 [1]): 50 µM | Activity (Poliovirus 2 [2]): 1.5 | Activity (Poliovirus 2 [3]): 1 | Activity (Poliovirus 2 [4]): 0.5 | Activity (Poliovirus 2 [5]): 1.5 | MNTC [6]: 250 µM | Activity (Poliovirus 2 [7]): 1.5 | Activity (Poliovirus 2 [8]): 0.5 | CC50 [9]: 342 µM | selectivity ratio [10]: 6.8

COc1cc2c(cc1O)C[C@H]1c3c(cc(OC)c(OC)c3-2)CCN1C
EC50 (Poliovirus 2 [1]): 15 µM | Activity (Poliovirus 2 [2]): 1.5 | Activity (Poliovirus 2 [3]): 1 | Activity (Poliovirus 2 [4]): 0.5 | Activity (Poliovirus 2 [5]): 2.5 | MNTC [6]: 125 µM | Activity (Poliovirus 2 [7]): 1 | Activity (Poliovirus 2 [8]): 1 | CC50 [9]: 250 µM | selectivity ratio [10]: 16.7

COc1cc2c(cc1O)C[C@@H]1NCCc3cc4c(c-2c31)OCO4 [ACTINODAPHNINE]
MNTC [6]: 95 µM | CC50 [9]: 107 µM

COc1cc2c(cc1O)C[C@H]1c3c(cc(O)c(OC)c3-2)CCN1C [BOLDINE]
EC50 (Poliovirus 2 [1]): 125 µM | MNTC [6]: 125 µM | CC50 [9]: 250 µM | selectivity ratio [10]: 2

COc1cc2c(cc1O)C[C@H]1c3c(cc4c(c3-2)OCO4)CCN1C [CASSYTHICINE]
MNTC [6]: 31 µM | CC50 [9]: 47 µM

COc1cc2c(cc1OC)-c1c(OC)c(OC)cc3c1[C@H](C2)N(C)CC3.O=C(O)/C=C/C(=O)O [GLAUCINE FUMARATE]
EC50 (Poliovirus 2 [1]): 9 µM | Activity (Poliovirus 2 [2]): 1.5 | Activity (Poliovirus 2 [3]): 1.5 | Activity (Poliovirus 2 [4]): 0.5 | Activity (Poliovirus 2 [5]): 3 | MNTC [6]: 62 µM | Activity (Poliovirus 2 [7]): 1 | Activity (Poliovirus 2 [8]): 1 | CC50 [9]: 142 µM | selectivity ratio [10]: 15.8

COc1c2c3c(c4c1OCO4)-c1ccccc1[C@H](O)[C@H]3N(C)CC2 [GUATTERINE]
EC50 (Poliovirus 2 [1]): 62 µM | MNTC [6]: 62 µM | CC50 [9]: 107 µM | selectivity ratio [10]: 1.7

COc1cc2c(cc1O)C[C@H]1c3c(cc(OC)c(O)c3-2)CCN1C.Cl [ISOBOLDINE HYDROCHLORIDE]
EC50 (Poliovirus 2 [1]): 15 µM | Activity (Poliovirus 2 [2]): 1.5 | Activity (Poliovirus 2 [3]): 1.5 | Activity (Poliovirus 2 [4]): 1 | Activity (Poliovirus 2 [5]): 2.5 | MNTC [6]: 125 µM | Activity (Poliovirus 2 [7]): 1.5 | Activity (Poliovirus 2 [8]): 1 | CC50 [9]: 217 µM | selectivity ratio [10]: 14.5

COc1cc2c(cc1O)C[C@@H]1NCCc3cc(OC)c(OC)c-2c31 [LAUROTETANINE]
EC50 (Poliovirus 2 [1]): 31 µM | Activity (Poliovirus 2 [2]): 1.5 | Activity (Poliovirus 2 [3]): 1 | Activity (Poliovirus 2 [4]): 0.5 | Activity (Poliovirus 2 [5]): 1.5 | MNTC [6]: 62 µM | Activity (Poliovirus 2 [7]): 1 | Activity (Poliovirus 2 [8]): 1 | CC50 [9]: 165 µM | selectivity ratio [10]: 5.3

O=C1c2ccccc2-c2c3c(cc4ccnc1c24)OCO3 [LIRIODENINE]
MNTC [6]: 31 µM | CC50 [9]: 48 µM

COc1cc2ccnc3c2c(c1OC)-c1ccccc1C3=O [LYSICAMINE]
MNTC [6]: 250 µM | CC50 [9]: 500 µM

COc1cc2c(cc1O)C[C@@H]1NCCc3cc(O)c(OC)c-2c31 [NORBOLDINE]
EC50 (Poliovirus 2 [1]): 62 µM | MNTC [6]: 62 µM | CC50 [9]: 95 µM | selectivity ratio [10]: 1.5

COc1cc2c3c(c1OC)-c1ccccc1C[C@H]3N(C)CC2.Cl [NUCIFERINE HYDROCHLORIDE]
EC50 (Poliovirus 2 [1]): 26 µM | Activity (Poliovirus 2 [2]): 1 | Activity (Poliovirus 2 [3]): 0.5 | Activity (Poliovirus 2 [4]): 0.5 | Activity (Poliovirus 2 [5]): 2 | MNTC [6]: 125 µM | Activity (Poliovirus 2 [7]): 1 | Activity (Poliovirus 2 [8]): 0.5 | CC50 [9]: 435 µM | selectivity ratio [10]: 16.7

COc1ccc2c(c1)[C@H](O)[C@@H]1c3c(cc4c(c3-2)OCO4)CCN1C [OLIVERIDINE]
MNTC [6]: 5 µM | CC50 [9]: 7 µM

COc1ccc2c(c1)[C@H](OC)[C@@H]1c3c(cc4c(c3-2)OCO4)CCN1C [OLIVERINE HCL]
MNTC [6]: 7 µM | CC50 [9]: 9 µM

COc1cccc2c1C(=O)c1nccc3cc4c(c-2c13)OCO4 [OXOSTEPHANINE]
MNTC [6]: 15 µM | CC50 [9]: 28 µM

CO[C@H]1c2ccccc2-c2c3c(cc4c2[C@@H]1NCC4)OCO3 [PACHYPODANTINE]
MNTC [6]: 20 µM | CC50 [9]: 25 µM

CO[C@H]1c2ccccc2-c2c3c(cc4c2[C@@H]1N(C)C[C@@H]4O)OCO3 [PACHYSTAUDINE]
EC50 (Poliovirus 2 [1]): 31 µM | Activity (Poliovirus 2 [2]): 0.5 | Activity (Poliovirus 2 [5]): 0.5 | MNTC [6]: 62 µM | Activity (Poliovirus 2 [7]): 0 | CC50 [9]: 68 µM | selectivity ratio [10]: 2.2
